According to PMC10254235, “Design, Synthesis, and Anti-Cervical Cancer and Reversal of Tumor Multidrug Resistance Activity of Novel Nitrogen-Containing Heterocyclic Chalcone Derivatives” (Molecules, 2023):

How the values were obtained:
p-VEGFR-2 = assay: Western blot, VEGFR-2 phosphorylation in HUVEC cells; type: cell-based, human; conditions: 24 h, 6f 2, 4, 6 μM, sorafenib 4 μM, versus blank group, p < 0.05
H8 cells = assay: MTT cytotoxicity assay, normal cervical epithelial H8 cells; type: cell-based, human; conditions: Homo sapiens, 48 h, mean ± SD
Method: (§1) HeLa and SiHa cell lines were obtained from the Procell Life Science Technology Co., Ltd. (Wuhan, China); H8 cell line was obtained from the Shanghai HonSun Biological Technology Co., Ltd. (Shanghai, China); HUVEC cell line was obtained from the Saibaikang (Shanghai) Biotechnology Co., Ltd. (Shanghai, China); HeLa/DDP cell line was obtained from the Guangzhou Jenniobio Biotechnology Co., Ltd. (Guangzhou, China). HeLa, SiHa, H8, and HeLa/DDP cells were cultured in DMEM medium (HyClone). The VEGF of 50 ng/mL was used as the promoter of the VEGFR-2 receptor on HUVEC cell membrane surfaces, and their inhibitory effects on VEGFR-2 were determined. All the mediums were supplemented with 10% FBS (HyClone, GE Healthcare, Australia). Cells were maintained at subconfluency at 37 °C in humidified air containing 5% CO2. The cells were monitored daily and maintained at 80% cell density. All compounds tested were dissolved in DMSO and then diluted by the culture medium before the treatment of cultured cells. Identification reports are available for all types of cell lines involved in this study.
(§2) The cytotoxicity of the target compounds were measured in vitro using the MTT assay. Cells grown in the logarithmic phase were counted and seeded in 96-well cell culture plates (5 × 10^3 cells per well) for 24 h to allow attachment of cells to the wall of the plate. […] Next, 20 μL of 5 mg.mL^−1 MTT solution was added to each well and cultured for 4 h. The old solution was discarded, replaced with 150 μL DMSO solution per well, and shaken for 10 min. The OD value was measured under 490 nm, and the inhibition rate was calculated. The nonlinear regression fitting of the cell growth rate was carried out using SPSS 23.0 software, and the IC50 of the compound was calculated. […] There were 6 compound holes in each group, and the experimental results were presented as the average of 3 experiments. A complete medium containing only cells was used as the blank control, whereas a complete medium without cells was the negative control group. Cisplatin and sorafenib were utilized as the positive control group, and the target compound was the experimental intervention group.

Bax = assay: Western blot, Bax in HeLa cells; type: cell-based, human; conditions: HeLa, 2, 4 and 6 μM, 24 h, versus control, p < 0.05
Method: (§3) Next, the protein concentrations were determined using a BCA Protein Assay Kit (Solarbio, China). An equal amount of the proteins (12 μg) were separated using 8–12% sodium dodecyl sulfate–polyacrylamide gel electrophoresis (SDS-PAGE) and transferred to nitrocellulose membranes (Amersham Biosciences, Little Chalfont, Buckinghamshire, UK). Then, the membranes were blocked with 5% nonfat dried milk in TBS containing 1% Tween-20 for 2 h at room temperature and were incubated overnight with specific primary antibodies (CST, Boston, MA, USA) at 4 °C. After three washes in TBST, the membranes were incubated with the appropriate HRP-conjugated secondary antibodies at room temperature for 2 h. The blots were developed using enhanced chemiluminescence (Biosharp, Shanghai, China) and were detected using a PE 0723 imager (ProteinSimple, Silicon Valley, CA, USA). Each experiment was performed at least in triplicate and analyzed using Image J software (V1.8.0.112). […]
(§4) After incubation, cells were harvested and incubated using […] of Annexin-V/FITC (BD, America) in binding buffer (10 mM HEPES, 140 mM NaCl, and 2.5 mM CaCl2 at pH 7.4) at room temperature for 15 min. […] Almost 10,000 events were collected for each sample and analyzed using flow cytometry (BD, LSRFortessa, New York, NY, USA). […]

HeLa/DDP cells = assay: MTT assay, cisplatin-resistant HeLa/DDP cells; type: cell-based, human
Method: The cytotoxicity of the target compounds were measured in vitro using the MTT assay. Cells grown in the logarithmic phase were counted and seeded in 96-well cell culture plates (5 × 10^3 cells per well) for 24 h to allow attachment of cells to the wall of the plate. […] Next, 20 μL of 5 mg.mL^−1 MTT solution was added to each well and cultured for 4 h. The old solution was discarded, replaced with 150 μL DMSO solution per well, and shaken for 10 min. The OD value was measured under 490 nm, and the inhibition rate was calculated. The nonlinear regression fitting of the cell growth rate was carried out using SPSS 23.0 software, and the IC50 of the compound was calculated. […] A complete medium containing only cells was used as the blank control, whereas a complete medium without cells was the negative control group.

p-PI3K (Tyr458) = assay: Western blot, p-PI3K in HeLa cells; type: cell-based, human; conditions: HeLa, 2, 4 and 6 μM, 24 h
Method: as §3

HeLa cells = assay: Transwell migration assay; type: cell-based, human; conditions: 24 h, control 1205
Method: Initially, HeLa (5 × 10^4 cells) were suspended in 200 μL of an FBS-free medium. […] The lower chamber was filled with 600 μL of medium containing 10% FBS. After incubating at 37 °C for 24 h, the cells on the top side of the transwell membrane were removed with a cotton tip. The cells trapped on the bottom side of the membrane were fixed using methanol and stained using 0.1% crystal violet solution for 30 min, respectively.

p-AKT (Ser473) = assay: Western blot, p-AKT in HeLa cells; type: cell-based, human; conditions: HeLa, 2, 4 and 6 μM, 24 h
Method: as §3

P-gp = assay: Western blot, P-gp expression in HeLa/DDP cells; type: cell-based, human; conditions: 0.25, 0.5 and 1 μM, p > 0.05
Method: as §3
To reduce the adverse reactions caused by the fixation of drug resistance reversal agents, the concentration that reduces the proliferation rate of tumor cells by less than 10% was selected. Therefore, the inhibitory activity of compound 6f on HeLa/DDP cells was determined in the concentration ranges of 0.25, 0.5, and 1 μM combined with cisplatin. […]

Bcl-2 = assay: Western blot, Bcl-2 in HeLa cells; type: cell-based, human; conditions: HeLa, 2, 4 and 6 μM, 24 h, versus control, p < 0.05
Method: as §3, §4

HUVEC cells = assay: In vitro HUVEC inhibitory assay (MTT); type: cell-based; conditions: Homo sapiens, 48 h, ± SD
Method: as §1, §2
After incubation for 24 h, the cell was collected using centrifugation and washed twice using PBS chilled to 0 °C. Then, the cells were homogenized in RIPA lysis buffer and 1% PMSF, 1% mixed phosphatase inhibitor (Solarbio, Beijing, China). The lysates were incubated on ice for 30 min, intermittently vortexed every 5 min, and centrifuged at 12,000 rpm for 20 min to harvest the supernatants.

Compound: COc1cc(O)c(C(=O)/C=C/c2ccc(CN3CCC(C)CC3)cc2)cc1CN1CCC(O)CC1 [6f, (E)-1-(2-hydroxy-5-((4-hydroxypiperidin-1-yl)methyl)-4-methoxyphenyl)-3-(4-((4-methylpiperidin-1-yl)methyl)phenyl)prop-2-en-1-one]
- phosphorylation of VEGFR-2 in HUVEC cells (Western blot) (p-VEGFR-2): significantly inhibited the phosphorylation of VEGFR-2
- IC50 (H8 cells): 30.1 ± 2.51 µM
- expression of Bax (Western blot) (Bax): significantly upregulated the expression of Bax
- inhibitory rate on HeLa/DDP cell line (HeLa/DDP cells; 6f alone at 0.25, 0.5 and 1 μM): less than 10%
- RI (resistance index) (HeLa/DDP cells; HeLa/DDP versus HeLa, single agent): 1.19
- IC50 (HeLa/DDP cells; Homo sapiens, cisplatin-resistant HeLa/DDP cells, single agent, 48 h, read-out: 48h IC50 HeLa/DDP): 7.74 ± 0.36 µM
- p-PI3K (Tyr458) in HeLa cells (Western blot) (p-PI3K (Tyr458)): effective downregulation
- number of migrating cells (HeLa cells; 2 μM): 372
- number of migrating cells (HeLa cells; 4 μM): 132
- number of migrating cells (HeLa cells; 6 μM): 71
- p-AKT (Ser473) in HeLa cells (Western blot) (p-AKT (Ser473)): effective downregulation
- P-gp expression in HeLa/DDP cells (Western blot) (P-gp): did not exhibit a significant variance in P-gp expression
- expression of Bcl-2 (Western blot) (Bcl-2): significantly downregulating the expression of Bcl-2
- IC50 (HUVEC cells): 7.14 ± 0.91 µM
